Results reported in patent US20110144014A1, “CYTOKINE RECEPTOR MODULATORS AND USES THEREOF” (CENTRE HOSPITALIER UNIVERSITAIRE SAINTE-JUSTINE, priority 2005, published 2011).
Where a SMILES comes first, the peptide text is derived from it. Where no end group is shown, it is not given here. [ ]: non-standard residue; d: D form.

Columns and labels:
IGF-1R [1] = molecular target: T1, IGF-1R (Rattus norvegicus, UniProt P24062); test: Ex vivo IGF-1-induced vasorelaxation of rat aorta; settings: IGF-1 25 ng/ml; phenylephrine pre-constriction; read-out: Emax, inhibition of ex vivo IGF-1-induced vasorelaxation of rat aorta
T1 construct: from tissue; host or cells: aorta
T1 sequence (P24062 31-1370): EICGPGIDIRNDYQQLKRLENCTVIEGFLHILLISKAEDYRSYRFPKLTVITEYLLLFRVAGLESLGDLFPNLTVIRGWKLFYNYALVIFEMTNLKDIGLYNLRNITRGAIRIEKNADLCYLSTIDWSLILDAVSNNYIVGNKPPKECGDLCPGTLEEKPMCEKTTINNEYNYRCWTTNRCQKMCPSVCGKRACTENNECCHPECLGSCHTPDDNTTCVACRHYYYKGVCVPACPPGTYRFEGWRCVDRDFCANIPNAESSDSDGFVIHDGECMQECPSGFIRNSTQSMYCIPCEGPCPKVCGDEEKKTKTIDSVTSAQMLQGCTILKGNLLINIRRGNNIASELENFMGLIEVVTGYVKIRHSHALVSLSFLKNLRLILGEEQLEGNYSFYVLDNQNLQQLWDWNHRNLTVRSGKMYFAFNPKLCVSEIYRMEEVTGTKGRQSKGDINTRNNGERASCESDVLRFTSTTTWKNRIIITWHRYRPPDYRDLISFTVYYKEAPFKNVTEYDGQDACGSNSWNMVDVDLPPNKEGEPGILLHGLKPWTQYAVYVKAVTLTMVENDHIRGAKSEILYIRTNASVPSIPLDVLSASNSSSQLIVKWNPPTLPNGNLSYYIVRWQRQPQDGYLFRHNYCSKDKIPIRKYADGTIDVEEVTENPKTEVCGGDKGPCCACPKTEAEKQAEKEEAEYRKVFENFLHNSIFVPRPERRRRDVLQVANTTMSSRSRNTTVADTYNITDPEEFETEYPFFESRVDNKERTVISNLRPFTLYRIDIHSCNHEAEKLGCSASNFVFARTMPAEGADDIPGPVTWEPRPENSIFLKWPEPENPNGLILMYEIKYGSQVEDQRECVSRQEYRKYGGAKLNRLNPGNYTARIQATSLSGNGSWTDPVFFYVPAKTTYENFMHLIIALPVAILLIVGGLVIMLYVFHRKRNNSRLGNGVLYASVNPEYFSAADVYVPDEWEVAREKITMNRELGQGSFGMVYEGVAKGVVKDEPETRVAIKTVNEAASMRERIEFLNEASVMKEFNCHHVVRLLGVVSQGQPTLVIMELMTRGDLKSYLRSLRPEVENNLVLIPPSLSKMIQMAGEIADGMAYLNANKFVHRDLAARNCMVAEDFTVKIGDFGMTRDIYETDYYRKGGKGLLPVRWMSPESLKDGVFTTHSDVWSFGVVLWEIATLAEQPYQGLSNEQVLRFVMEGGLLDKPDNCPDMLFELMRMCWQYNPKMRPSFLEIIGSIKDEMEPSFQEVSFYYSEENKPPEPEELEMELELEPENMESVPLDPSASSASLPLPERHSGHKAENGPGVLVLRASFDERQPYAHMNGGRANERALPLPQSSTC
Method: Aortas were first incubated with different concentrations of peptides and phenylephrine to induce aorta constriction. IGF-1 (25 ng/ml) was then added to induce vasorelaxation. The results are expressed relative to a control aorta not incubated with the peptides. Vascular diameter was measured using a digital image analyzer. Vascular diameter was recorded before and after topical application of pre-constricting agent. After stabilization of the preparation, the ligand (IGF-1, 25 ng/ml) was added until stable vasodilation was detected. Peptides were subsequently added at different concentrations from 10^−8 to 10^−6 M. Reversal of vasodilatation was visualized and measured as described, for example, by Hou et al. (Am. J. Physiol. Regul. Integr. Comp. Physiol. 284:R928-R935 (2003)), Hou et al. (Stroke 31:516-524; discussion 525 (2000)), and Hou et al. (Am. J. Physiol. Regul. Integr. Comp. Physiol. 281:R391-R400 (2001)). Triplicate measurements were conducted on 2 animals.

IGF-1R [2] = molecular target: T2, IGF-1R (Homo sapiens, UniProt P08069); test: IGF-1-induced tyrosine autophosphorylation of IGF-1R (Western Blot); assay type: cell-based; settings: peptides 10^−6M, 45 min; IGF-1 50 ng/ml; read-out: inhibition of IGF-1-induced phosphorylation
Method: Cells were incubated with anti-IGF-1R peptides (10^−6M) for 45 minutes and with IGF-1 at 50 ng/ml for either 15 minutes or 5 minutes. Western Blots (phosphorylated tyrosine antibody and IGF-1R antibody) were performed in non-denaturing conditions on total cell lysates (FIG. 17).
Target sequence in this assay (P08069 31-1367, species assumed): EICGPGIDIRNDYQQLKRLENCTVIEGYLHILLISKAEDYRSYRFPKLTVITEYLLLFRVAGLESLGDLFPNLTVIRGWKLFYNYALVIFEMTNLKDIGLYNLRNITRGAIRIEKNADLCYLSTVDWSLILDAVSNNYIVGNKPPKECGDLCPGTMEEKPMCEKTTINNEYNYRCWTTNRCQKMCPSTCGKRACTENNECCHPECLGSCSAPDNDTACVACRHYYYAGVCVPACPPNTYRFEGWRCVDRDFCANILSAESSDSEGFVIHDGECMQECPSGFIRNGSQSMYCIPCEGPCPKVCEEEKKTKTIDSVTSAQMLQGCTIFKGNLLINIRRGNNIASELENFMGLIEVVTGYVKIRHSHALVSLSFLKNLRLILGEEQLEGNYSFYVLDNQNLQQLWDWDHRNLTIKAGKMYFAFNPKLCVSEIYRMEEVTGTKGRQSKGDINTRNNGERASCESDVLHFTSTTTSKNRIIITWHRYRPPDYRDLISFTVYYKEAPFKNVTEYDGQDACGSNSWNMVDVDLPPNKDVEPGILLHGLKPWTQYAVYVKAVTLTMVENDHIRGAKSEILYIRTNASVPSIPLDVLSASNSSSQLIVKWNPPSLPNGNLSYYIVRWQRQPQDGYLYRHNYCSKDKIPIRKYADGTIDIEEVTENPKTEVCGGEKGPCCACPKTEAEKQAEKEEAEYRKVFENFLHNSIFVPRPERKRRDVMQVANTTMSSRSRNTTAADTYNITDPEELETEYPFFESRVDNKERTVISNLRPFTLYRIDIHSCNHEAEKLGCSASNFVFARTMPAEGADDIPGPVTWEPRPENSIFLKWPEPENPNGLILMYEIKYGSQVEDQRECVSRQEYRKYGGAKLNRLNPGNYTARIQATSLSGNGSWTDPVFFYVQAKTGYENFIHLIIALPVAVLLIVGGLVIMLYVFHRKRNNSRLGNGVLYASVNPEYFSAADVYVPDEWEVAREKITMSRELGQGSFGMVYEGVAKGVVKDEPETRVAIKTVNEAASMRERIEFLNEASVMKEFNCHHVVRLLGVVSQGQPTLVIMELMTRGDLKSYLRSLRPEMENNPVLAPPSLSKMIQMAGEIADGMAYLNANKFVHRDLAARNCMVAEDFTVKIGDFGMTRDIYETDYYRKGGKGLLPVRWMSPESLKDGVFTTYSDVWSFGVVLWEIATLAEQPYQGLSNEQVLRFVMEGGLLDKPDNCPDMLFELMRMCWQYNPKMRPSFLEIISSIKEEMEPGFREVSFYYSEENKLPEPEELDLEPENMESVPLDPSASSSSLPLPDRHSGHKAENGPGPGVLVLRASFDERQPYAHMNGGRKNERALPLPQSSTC

IGF-1R [3] = molecular target: T2, IGF-1R; test: IGF-1 induced proliferation of MCF-7 breast carcinoma cells (3H-thymidine); assay type: cell-based; set-up: MCF-7 breast carcinoma cells; endogenous in cells; host or cells: MCF-7; settings: for inhibition / Emax: MCF7; for inhibition: read-out: efficacy, inhibition of MCF-7 proliferation
Method: We also tested the effect IGF-1R antagonist peptides on IGF-1 induced proliferation in other cancer cell types (MCF-7 breast carcinoma cells, HepG2 hepatocarcinoma cells, and MDA-MB-231 breast adenocarcinoma cells). Different cancer cells were pre-incubated (45 min.) with different concentrations of peptides prior to stimulation with IGF-1 (50 ng/ml) (37° C.) for 24 hours; fetal calf serum was omitted 24 hours prior to stimulation with IGF-1 to avoid proliferative effects by other mitotic agents. ^3H-thymidine (1 μCi/ml) was then added for 24 hours, after which cells were washed three times with 5% cold TCA and lysed with 0.1N NaOH/0.1% Triton X-100. Radioactivity was measured with a scintillation counter. Experiments were repeated 3 times in duplicates (FIG. 15). […]
Target sequence in this assay (P08069 31-736 limits assumed): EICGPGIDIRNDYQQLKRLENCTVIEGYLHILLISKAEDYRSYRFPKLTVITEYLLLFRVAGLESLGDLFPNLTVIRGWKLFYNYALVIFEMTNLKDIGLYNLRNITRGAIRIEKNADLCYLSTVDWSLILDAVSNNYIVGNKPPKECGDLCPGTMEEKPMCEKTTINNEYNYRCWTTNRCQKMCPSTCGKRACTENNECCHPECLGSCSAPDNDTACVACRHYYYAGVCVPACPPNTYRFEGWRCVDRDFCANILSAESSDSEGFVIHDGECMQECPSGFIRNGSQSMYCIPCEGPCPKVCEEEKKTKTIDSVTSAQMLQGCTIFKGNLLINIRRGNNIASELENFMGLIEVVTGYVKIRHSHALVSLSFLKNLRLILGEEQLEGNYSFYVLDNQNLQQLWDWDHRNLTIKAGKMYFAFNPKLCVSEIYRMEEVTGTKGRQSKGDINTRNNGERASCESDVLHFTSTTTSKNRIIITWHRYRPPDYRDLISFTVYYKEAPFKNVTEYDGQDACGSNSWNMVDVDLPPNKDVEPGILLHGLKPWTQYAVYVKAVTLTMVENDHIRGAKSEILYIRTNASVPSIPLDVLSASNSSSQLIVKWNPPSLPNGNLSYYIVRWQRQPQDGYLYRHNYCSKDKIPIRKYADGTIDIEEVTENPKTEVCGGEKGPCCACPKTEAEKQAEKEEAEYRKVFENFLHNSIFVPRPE
Target sequence in this assay (P08069 741-1367 limits assumed): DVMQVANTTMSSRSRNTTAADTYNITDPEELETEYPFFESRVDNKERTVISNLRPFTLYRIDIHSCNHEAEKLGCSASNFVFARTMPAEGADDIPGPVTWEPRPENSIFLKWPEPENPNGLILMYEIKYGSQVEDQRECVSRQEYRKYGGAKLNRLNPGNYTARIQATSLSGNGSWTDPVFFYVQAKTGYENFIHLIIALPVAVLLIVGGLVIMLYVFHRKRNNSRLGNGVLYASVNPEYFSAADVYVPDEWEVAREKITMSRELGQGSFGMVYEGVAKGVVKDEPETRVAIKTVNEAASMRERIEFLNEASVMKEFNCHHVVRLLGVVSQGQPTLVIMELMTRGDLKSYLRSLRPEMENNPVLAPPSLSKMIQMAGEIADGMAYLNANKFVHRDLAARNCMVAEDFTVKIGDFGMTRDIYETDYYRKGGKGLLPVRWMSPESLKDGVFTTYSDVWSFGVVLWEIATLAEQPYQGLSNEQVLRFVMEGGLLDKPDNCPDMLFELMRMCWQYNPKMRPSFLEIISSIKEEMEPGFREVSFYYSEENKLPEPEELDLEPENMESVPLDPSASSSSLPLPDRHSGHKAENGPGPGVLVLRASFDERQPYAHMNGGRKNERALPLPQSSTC

IGF-1R [4] = molecular target: T2, IGF-1R; test: IGF-1 induced proliferation of MDA-MB-231 breast adenocarcinoma cells (3H-thymidine); assay type: cell-based; set-up: MDA-MB-231 breast adenocarcinoma cells; endogenous in cells; host or cells: MDA-MB-231; settings: for Emax: MDA-MB-231, read-out: Emax, in vitro cell proliferation assay; for EC50: read-out: EC50, in vitro cell proliferation assay
Method: (§1) We also tested the effect IGF-1R antagonist peptides on IGF-1 induced proliferation in other cancer cell types (MCF-7 breast carcinoma cells, HepG2 hepatocarcinoma cells, and MDA-MB-231 breast adenocarcinoma cells). Different cancer cells were pre-incubated (45 min.) with different concentrations of peptides prior to stimulation with IGF-1 (50 ng/ml) (37° C.) for 24 hours; fetal calf serum was omitted 24 hours prior to stimulation with IGF-1 to avoid proliferative effects by other mitotic agents. ^3H-thymidine (1 μCi/ml) was then added for 24 hours, after which cells were washed three times with 5% cold TCA and lysed with 0.1N NaOH/0.1% Triton X-100. Radioactivity was measured with a scintillation counter. Experiments were repeated 3 times in duplicates (FIG. 15).
Target sequence in this assay (P08069 31-736 limits assumed): as the sequence (P08069 31-736 limits assumed) above
Target sequence in this assay (P08069 741-1367 limits assumed): as the sequence (P08069 741-1367 limits assumed) above

IGF-1R [5] = molecular target: T2, IGF-1R; test: IGF-1 induced proliferation of HepG2 hepatocarcinoma cells (3H-thymidine); assay type: cell-based; set-up: HepG2 hepatocarcinoma cells; endogenous in cells; host or cells: HepG2; settings: for Emax: read-out: Emax, in vitro cell proliferation assay
Method: as §1
Target sequence in this assay (P08069 31-736 limits assumed): as the sequence (P08069 31-736 limits assumed) above
Target sequence in this assay (P08069 741-1367 limits assumed): as the sequence (P08069 741-1367 limits assumed) above

VEGFR2 (Flk-1) [6] = test: VEGF induced proliferation of microvascular endothelial cells (3H-thymidine); assay type: cell-based, porcine; settings: VEGF 2 ng/ml
Method: (§2) To determine the efficient and non-cytotoxic concentration of VEGF to use in the assay, a dose-response curve of VEGF was generated in two types of cells, namely microvascular endothelial cells and pulmonary artery endothelial cells (PAEC) that had been transfected with the Flk-1 gene. The proliferation was then measured in those two types of cells in the presence of peptides 2.1, 2.2 and 2.3 and of VEGF (2 ng/ml) pursuant to the incorporated tritiated thymidine method. The cells were preincubated at 37° C. with the different peptides at different concentrations. They were incubated with VEGF (2 ng/ml) for 24 hours. The cells were contacted with ^3H-Thymidine for 24 hours, washed and lysed. The radioactivity was measured with a scintillation counter.

VEGFR2 (Flk-1) [7] = molecular target: T3, VEGFR2 (Flk-1) (Homo sapiens, UniProt P35968); test: VEGF induced proliferation of PAEC transfected with the Flk-1 gene (3H-thymidine); assay type: cell-based; settings: VEGF 2 ng/ml
T3 construct: expressed in transfected cells; host or cells: pulmonary artery endothelial cells (PAEC)
Method: as §2

[8] = tested on: neovascularization in rat retinas; test: Ischemic retinopathy model; assay type: in vivo; settings: rat pups, 80% O2 then normoxia; intravitreal, 10 μM final
Method: The efficiency of the selected peptides was verified in vivo in a ischemic retinopathy model, a phenomena highly dependent on VEGF activation. Rat pups were exposed to 80% O2 followed by a period of normoxia (21% O2). The peptides were injected at a final concentration of 10 μM in the vitreous body. The retinas were then retrieved, colored with the ADPase method and mounted on slides. Photographs of the retinas were taken with a microscope linked to a computer and the vascular density was evaluated with the Imagepro software.

IGF-1R [9] = molecular target: T2, IGF-1R; test: IGF-1 induced proliferation of A549 carcinoma cells (3H-thymidine); assay type: cell-based; set-up: endogenous in cells; host or cells: A549
Method: The proliferation induced by IGF-1 was measured in A549 carcinoma cells in the presence of peptides APG201; APG202 and APG204 and of IGF-1 (10 ng/ml-FIG. 8A) and (1 ng/ml-FIG. 8B) pursuant to the incorporated tritiated thymidine method. The cells were preincubated at 37° C. with the different peptides at different concentrations, namely 10^−7, 10^−6 and 10^−5M. The cells were then incubated with IGF-1 (10 ng/ml or 1 ng/ml) for 24 hours and contacted with ^3H-Thymidine for 24 hours, washed, and lysed. Radioactivity levels were measured with a scintillation counter.
Target sequence in this assay (P08069 31-736 limits assumed): as the sequence (P08069 31-736 limits assumed) above
Target sequence in this assay (P08069 741-1367 limits assumed): as the sequence (P08069 741-1367 limits assumed) above

IGF-1R [10] = molecular target: T2, IGF-1R; test: IGF-1-induced proliferation of NIH3T3 cells transfected with human IGF-1R cDNA (3H-thymidine); assay type: cell-based; set-up: expressed in transfected cells; host or cells: NIH3T3; settings: NIH3T3-IGF-1R cells; IGF-1 50 ng/ml
Method: Derivatives of APG-203 and APG-206 peptides were truncated to determine peptide regions important for activity. Peptides were assayed for efficacy and potency with an ^3H-thymidine incorporation assay. In short, the ^3H-thymidine incorporation proliferation assay was performed in NIH3T3 cells transfected with human IGF-1R cDNA in presence of IGF-1 50 ng/ml and different concentrations of peptides.
Target sequence in this assay (P08069 31-1367): as the sequence (P08069 31-1367, species assumed) above

[11] = MCF-7, IGF-1 50 ng/ml, read-out: Emax, in vitro cell proliferation assay
[12] = A549, IGF-1 10 ng/ml or 1 ng/ml
[13] = MCF-7 (breast cancer) cells, Table 5, read-out: Emax

| Compound | Emax (IGF-1R [1]) | inhibition (IGF-1R [3]; IGF-1 50 ng/ml) | Emax (IGF-1R [3]; [11]) | Emax (IGF-1R [4]; MB-MDA-231, IGF-1 50 ng/ml) | Emax (IGF-1R [10]) | also measured |
| --- | --- | --- | --- | --- | --- | --- |
| IRKYADGTI [APG-204] | 25% | ≤ 90% | 90% | 100% |  | inhibition at 1 µM (IGF-1R [2]): 30% |
| RTNASVPSI [APG-203] | 50% | ≤ 90% | 45% | 100% |  | efficacy, inhibition of HepG2 proliferation (IGF-1R [5]): 50%; EC50 (IGF-1R [5]; HepG2, IGF-1 50 ng/ml, read-out: EC50, in vitro cell proliferation assay): < 0.1 nM; Emax (IGF-1R [5]; HepG2, IGF-1 50 ng/ml): 100%; EC50 (IGF-1R [3]; IGF-1 50 ng/ml, read-out: potency, inhibition of MCF-7 proliferation): 0.1 to 60 nM; EC50 (IGF-1R [4]; MB-MDA-231, IGF-1 50 ng/ml): 0.1 nM |
| CC(C)C[C@@H](NC(=O)[C@@H](CCCNC(=N)N)NC(=O)[C@H](NC(=O)[C@@H](CCCNC(=N)N)NC(=O)[C@@H](CCC(=O)O)NC(=O)CNC(=O)[C@H](NC(=O)[C@H](NC(=O)[C@@H](C)NC(=O)[C@H](N)CCC(=O)O)[C@H](C)O)C(C)C)C(C)C)C(=O)O [Peptide 2.2] (H-[dE][dA][dT][dV]G[dE][dR][dV][dR][dL]-OH; N-terminus and C-terminus assumed) |  |  |  |  |  | VEGF induced proliferation (VEGFR2 (Flk-1) [6]): completely abrogated; EC50 (VEGFR2 (Flk-1) [7]): 9000 nM; induced neovascularization [8]: most effective inhibitor of neovascularization |
| CC(C)C[C@@H](NC(=O)[C@H](NC(=O)[C@@H](CC(=O)O)NC(=O)[C@@H](CO)NC(=O)[C@H](N)CCC(=O)O)C(C)C)C(=O)N[C@H](Cc1c[nH]cn1)C(=O)N[C@H](Cc1ccccc1)C(=O)N[C@@H](C(=O)N[C@H](CO)C(=O)N[C@@H](C(=O)O)[C@H](C)O)[C@H](C)O [APG-202] (H-[dE][dS][dD][dV][dL][dH][dF][dT][dS][dT]-OH; N-terminus and C-terminus assumed) |  |  | 20% |  |  | IGF-1 induced proliferation (IGF-1R [9]; [12]): completely abrogated; EC50 (IGF-1R [9]; A549, IGF-1 10 ng/ml or 1 ng/ml, read-out: EC50, IGF-1 induced proliferation): 10 nM; EC50, in vitro cell proliferation assay (IGF-1R [4]; MB-MDA-231, IGF-1 50 ng/ml): Not active |
| CC(C)C[C@@H](NC(=O)[C@H](N)CO)C(=O)N[C@H](Cc1ccccc1)C(=O)N[C@@H](C(=O)N1CCC[C@@H]1C(=O)N[C@H](CCCNC(=N)N)C(=O)N1CCC[C@@H]1C(=O)N[C@H](CCC(=O)O)C(=O)N[C@H](CCCNC(=N)N)C(=O)N[C@H](CCCCN)C(=O)O)C(C)C [APG-201] (H-[dS][dL][dF][dV][dP][dR][dP][dE][dR][dK]-OH; N-terminus and C-terminus assumed) |  |  | 20% | 100% |  | EC50 (IGF-1R [9]): 1000 nM; IGF-1 induced proliferation (IGF-1R [9]; [12]): completely abrogated; potency in MDA-MB-231 (IGF-1R [4]; ER insensitive cells): nanomolar potencies; EC50 (IGF-1R [4]; MB-MDA-231, IGF-1 50 ng/ml): 0.1 nM |
| KERTVLS [APG-206.5, KERTVLS] |  |  |  |  | 75% | Emax (IGF-1R [3]; [13]): 100% |
| TVLSNL [APG-206.9, TVLSNL] |  |  |  |  | 90% | IC50 (IGF-1R [10]): 20 nM |
| ERTVLSNL [APG-206.7] |  |  |  |  | 100% | Emax (IGF-1R [3]; [13]): 90% |
| KERTVISNLR [APG-206] | 75% | ≤ 90% | 60% |  |  | inhibition at 1 µM (IGF-1R [2]): > 70%; Emax (IGF-1R [5]; HepG2, IGF-1 50 ng/ml): 100% |
| ENFLHLLLA [APG-205] | 25% | ≤ 90% | 60% | 100% |  |  |
